According to a melting point compilation (Tetko et al.; mined from patent text by program, amines drawn as free bases though some values may be those of a salt):
Residues, ends and D or L forms follow the SMILES beside them. *: point of attachment. Boc = CC(C)(C)OC(=O)*; Bn = c1ccc(C*)cc1

First: C=C1CC(c2ccc(C)c(C)c2)N(C)C1=O (stereo unspecified)
Second: COC(=O)C1Cc2c(n(C)c3ccccc23)CN1C(=S)SC (stereo unspecified)
The melting point of the first is higher: 180 to 184 °C for the first, 170 to 171 °C for the second.

First: CC(=O)N1CCC(C(=O)c2ccc(Br)cc2F)CC1
Second: CC(=O)N1CCC(Oc2ccc(N3CCCC3)cc2)CC1
The melting point of the first is higher: 111 to 113 °C for the first, 69 to 70 °C for the second.

First: Nc1cc(C(=O)O)cc(S(N)(=O)=O)c1Oc1cccc(Cl)c1
Second: O=C(O)c1cc(Oc2cc(F)c(C(F)(F)F)c(Cl)c2)ccc1Br
The melting point of the first is higher: 239 to 240 °C for the first, 113 to 117 °C for the second.

First: Cc1ccc(S(=O)(=O)OC2CC(=O)N(Cc3ccccc3)C2)cc1 (stereo unspecified)
Second: O=c1[nH]c2ccccc2c(=O)n1S(=O)(=O)c1ccc(Cl)cc1
The melting point of the first is lower: 83 to 84 °C for the first, 214 to 215 °C for the second.

First: CCN(CCCCNC(=O)c1ccc2ccccc2c1)C1CCc2ncsc2C1 (stereo unspecified)
Second: COCCNC(=O)c1cccc(-c2cccc3cc(Cc4cc(Cl)cc(Cl)c4)sc23)c1
The melting point of the first is higher: 120 °C for the first, 109 to 110 °C for the second.

First: N#Cc1c[nH]cc1-c1cccc2c1OCO2
Second: N#Cc1ccc(-c2nc3c(C(N)=O)cccc3[nH]2)cc1
The melting point of the first is lower: 206 to 208 °C for the first, greater than 310 °C for the second.

First: CCCN1C(=O)N2C[C@@H](Cc3ccccc3)N=C2c2c1nc(SC)n2COC
Second: CCn1ncc2c(NCC3CC3)c3ccccc3nc21
The melting point of the first is lower: 110 to 112 °C for the first, 228 to 230 °C for the second.

First: CCC1(CCO)C(=O)N2CC=CC(C(=O)OC)N2C1=O (stereo unspecified)
Second: COC(=O)CS(=O)(=O)N1CC=C(c2ccc(Br)c(C)c2)CC1
The melting point of the first is lower: 87 to 92 °C for the first, 110 to 112 °C for the second.

Compared with `CCCCc1ccc(CC(=O)c2ccccc2)cc1`, `O=C1CN(C(=O)c2ccccc2)c2ccccc2N1` is higher in melting point: 53 to 55 °C for the first, 208 °C for the second.

Compared with `CSC1=NC(=O)C(=Cc2cc(C(C)(C)C)c(O)c(C(C)(C)C)c2)N1`, `CC(C)(C)c1ccc(-c2nc3c4[nH]cnc4nc(CP(=O)(O)O)n3n2)cc1` is higher in melting point: 248 to 249 °C for the first, 270 °C for the second.

First: CCOC(=O)C=CC(=O)c1ccc(Cl)cc1
Second: CC(C)(C)C(=O)c1ccc(CC(=O)O)cc1
The melting point of the first is lower: 62.5 to 63.5 °C for the first, 111 to 112 °C for the second.

First: CS(=O)c1c(C#N)nn(-c2ccc(C(F)(F)F)cc2Cl)c1N (stereo unspecified)
Second: CCOC(=O)c1cc2nc(C(F)(F)F)ccc2n1Cc1ccncc1
The melting point of the first is higher: 146 to 147 °C for the first, 130 to 131 °C for the second.

Compared with `CSCCC(S)C(=O)NC1(C(=O)NC(Cc2ccc(-c3ccsc3)nc2)C(=O)O)CCCC1` (stereo unspecified), `COC(=O)C(CC(C)C)NC(=O)C(C)NC(=O)C(Cc1ccc(OCc2ccccc2)cc1)NC(=O)OC(C)(C)C` (stereo not drawn) (Boc-Tyr(Bn)-Ala-Leu-OMe; configuration not given here) is lower in melting point: 170 to 172 °C for the first, 128 to 129 °C for the second.

First: BrCOc1cccc(OCc2ccccc2)c1
Second: O=c1c2ccccc2n(Cc2ccccc2)n2cccc12
The melting point of the first is lower: 70 to 71 °C for the first, 146 to 148 °C for the second.

First: N#Cc1ccccc1Oc1ccc(-c2cn(C3CCOC3)c3ncnc(N)c23)cc1 (stereo unspecified)
Second: CCOC(=O)C(C)(C)Oc1ccc(OCCc2nc(-c3ccc(C(N)=O)cc3)oc2C)cc1
The melting point of the first is higher: 201 to 203 °C for the first, 112 °C for the second.

Compared with `CCc1nn2ccccc2c1C(C)=O`, `CC(=O)Nc1c(CC(=O)O)c2ccccc2n1C` is higher in melting point: 108 to 112 °C for the first, 200 to 206 °C for the second.

Compared with `Cn1c(=O)nc(-c2ccccc2F)c2ccsc21`, `COc1ccccc1-c1nn(-c2ccccc2)c(=O)o1` is lower in melting point: 222 to 223 °C for the first, 112 to 115 °C for the second.

First: OC1CC2(CCNC2)c2ccc(Cl)c(Cl)c21 (stereo unspecified)
Second: NS(=O)(=O)Oc1ccc(Cl)c(Cl)c1
The melting point of the first is higher: 167 to 170 °C for the first, 121 to 123 °C for the second.

`Cc1noc(-c2cccc(CN3C(=O)C4(COc5cc6c(cc54)OCCO6)c4ccccc43)c2)n1` (stereo unspecified) and `O=C1N(Cc2cccc(OC(F)(F)F)c2)c2ccccc2C12COc1cc3c(cc12)OCO3` (stereo unspecified) cannot be ordered by melting point: 80 to 89 °C for the first, 88 to 91 °C for the second.

First: COC(=C1C2CC3CC1CC(O)(C3)C2)c1cccc(O)c1
Second: COC(=O)C1=Cc2cc(-c3ccc(N4CCOCC4)cc3)ccc2SCC1
The melting point of the first is higher: 171 to 172 °C for the first, 154 to 156 °C for the second.

First: COc1ccc(-c2[nH]c3cn[nH]c(=O)c3c2Cl)cc1OCC1CC1
Second: CC(C)Oc1ccc(CCCO)c(Oc2ncc(Cl)cc2Cl)c1
The melting point of the first is higher: 256 to 258 °C for the first, 57 to 59 °C for the second.

First: Cc1cc(-c2cc(C(F)(F)F)n3ncc(-c4ccccn4)c3n2)ccc1Cl
Second: CN(C)S(=O)(=O)N1CCN(C(=O)c2ccc(Nc3ccnc4cc(C(F)(F)F)ccc34)cc2)CC1
The melting point of the first is lower: 183 °C for the first, 223 to 224 °C for the second.

First: C=C(C)C(=O)NC(=O)Nc1ccccc1
Second: O=C(NCCCl)NOCc1ccccc1
The melting point of the first is higher: 165 to 166 °C for the first, 67 to 68 °C for the second.

First: O=P(O)(O)CSc1nc2cc(Cl)c(C#Cc3ccccc3)cc2[nH]1
Second: C=CCSc1cc(C(=O)O)cc(N)c1C(=O)c1ccccc1
The melting point of the first is higher: 210 to 215 °C for the first, 152 to 154 °C for the second.

Compared with `CCn1cc(C(=O)O)c(=O)c2cc(Br)c(N3CCOCC3)cc21`, `CCn1cc(C(=O)O)c(=O)c2ccc(N3CCNCC3)nc21` is higher in melting point: 266 °C for the first, 272 to 273 °C for the second.

First: O=C(O)CCCC(=O)S[C@@H]1CC(=O)N(Cc2ccc(Oc3ccc(F)cc3)nc2)C1
Second: Cc1ccc(S(=O)(=O)NCCCCOc2ccc(C#N)cc2)cc1
The melting point of the first is higher: 132 to 133 °C for the first, 107 to 108 °C for the second.

First: CC1(Nc2ccccc2)OC(=O)C=C1c1ccccc1 (stereo unspecified)
Second: CC(C)CC1N=C(c2ccccc2)OC1=O (stereo unspecified)
The melting point of the first is higher: 158 to 160 °C for the first, 53 to 55 °C for the second.

First: COc1cc2c(cc1OC)C(O)(c1ccccn1)CC(C)(C)CO2 (stereo unspecified)
Second: COc1cc(NC(C)=O)c(OC)cc1C#N
The melting point of the first is lower: 90 °C for the first, 165 to 168 °C for the second.

First: O=C(O)c1cc(-n2c(-c3ccc(Br)cc3)cc3c2CCCC3)ccc1O
Second: Cc1c(C(=O)Nc2ccc(N3CCC(N(C)CCO)CC3)c(C#N)c2)cnn1-c1ccc(Cl)cc1
The melting point of the first is higher: 231 to 232 °C for the first, 186 °C for the second.

Compared with `O=C1c2ccccc2C(=O)N1OCCBr`, `CCc1n[nH]c(CC)c1CCCCCCOc1ccccc1` is higher in melting point: 98 °C for the first, 119 to 121 °C for the second.

First: Cc1nccn1-c1ccc(OCCO)cc1
Second: COc1cc(C)cc(OCCCSCCC(=O)O)c1
The melting point of the first is higher: 125 to 127 °C for the first, 39 to 42 °C for the second.

Going from `CCOc1ccc2c(c1)n(C1CCOCC1)c(=O)n2Cc1ccc(NC(=O)N(CC)CC)cc1OC` to `CCOC(=O)c1c(Cc2cc3c(cc2Cl)OCO3)c(-c2ccccc2)nn1CC1CCCCC1`, the melting point falls from 168 °C to 130 °C.

First: COc1cc(OC)nc(-n2nc(SC)n(N)c2=O)n1
Second: CCOC(=O)Cc1sc(Sc2ncccc2C(=O)OCC)nc1C
The melting point of the first is higher: 198 °C for the first, 181 to 183 °C for the second.

First: C[C@@H]1N(C)C(C)(C)CO[C@@]1(O)c1ccc(Cl)cc1
Second: Cc1ccc(S(=O)(=O)CC(=O)C(C)(C)C)cc1
The melting point of the first is higher: 167 to 169 °C for the first, 119 to 122 °C for the second.

Compared with `CN(C)C=C(C#N)C(=O)Nc1ccccc1-n1cccc1`, `CCn1c(=O)sc2cc(N3C[C@H](C(N)=O)OC3=O)ccc21` is higher in melting point: 167 to 169 °C for the first, 211 to 212 °C for the second.

First: CCn1cc(C(F)(F)F)c(=O)[nH]c1=O
Second: C=CCNC(=O)ON=C1SCC(=O)N1CC
The melting point of the first is higher: 259 to 260 °C for the first, 103 to 104 °C for the second.

First: CCCCCNc1nc(C)c(C(=O)c2ccc(Cl)c([N+](=O)[O-])c2)s1
Second: O=C1Nc2cc3c(cc2SC1CCCN1CCN(c2ccc(F)cc2)CC1)OCO3 (stereo unspecified)
The melting point of the first is lower: 99 to 104 °C for the first, 175 to 177 °C for the second.

First: C#CCOC(=O)N(I)C(C)C(=O)O (stereo unspecified)
Second: N#CN=C1CCCCN1C1=CC(CF)(CF)Oc2ccc(C(F)(F)C(F)(F)F)cc21
The melting point of the first is lower: 95 to 99 °C for the first, 196 to 197 °C for the second.
